A value given as a limit tells only on which side of the number the result lay.

In the test the target is MAPK14 (human) (UniProt Q16539). Put plainly: Inhibition of MAPK14 Kinase Activity.
Chain of MAPK14 (human) (Q16539 whole entry, looked up): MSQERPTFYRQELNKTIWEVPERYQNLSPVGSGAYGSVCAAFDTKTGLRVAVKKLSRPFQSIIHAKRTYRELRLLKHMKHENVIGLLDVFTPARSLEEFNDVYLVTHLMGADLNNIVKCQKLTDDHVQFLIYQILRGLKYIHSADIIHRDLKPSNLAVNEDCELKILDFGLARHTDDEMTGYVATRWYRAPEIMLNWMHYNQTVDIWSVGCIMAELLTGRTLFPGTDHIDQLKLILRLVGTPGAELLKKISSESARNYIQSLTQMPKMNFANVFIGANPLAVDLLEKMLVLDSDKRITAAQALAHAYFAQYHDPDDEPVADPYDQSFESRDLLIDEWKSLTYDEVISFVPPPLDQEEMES
`CC(C)NC(=O)c1csc(-c2oc(CNC(=O)Cc3cccc4ccccc34)nc2-c2ccc(F)cc2)n1` showed an IC50 of at most 1000 nM. On to `COc1cccc(CCNC(=O)c2csc(-c3sc(C)nc3-c3ccc(F)cc3)n2)c1`, for which the IC50 is at most 1000 nM. For `Cc1ccc([N+](=O)[O-])c(C(=O)NCc2onc(-c3ccc(F)cc3)c2-c2nc(C(=O)NC(C)C)cs2)c1` the value was at most 1000 nM; for `CC(C)NC(=O)c1csc(-c2oc(CNC(=O)CCc3cccc(C(F)(F)F)c3)nc2-c2ccc(F)cc2)n1`, at most 1000 nM; for `Cc1nc(Br)sc1C(=O)NCc1nc(-c2ccc(F)cc2)c(-c2nc(C(=O)NC(C)C)cs2)o1`, at most 1000 nM. In the case of `COc1cccc(O)c1C(=O)N1CCN(Cc2nc(-c3ccc(F)cc3)c(-c3nc(C(=O)NC(C)C)cs3)o2)CC1`, the IC50 is at most 1000 nM. In the case of `COc1cc(C=CC(=O)NCc2nc(-c3ccc(F)cc3)c(-c3nc(C(=O)NC(C)C)cs3)o2)ccc1O` it was at most 1000 nM; in that of `Cc1nc(-c2ccc(F)cc2)c(-c2nc(C(=O)NCCc3ccccc3)cs2)s1`, at most 1000 nM; in that of `Cc1nc(-c2ccc(F)cc2)c(-c2nc(C(=O)Nc3cnc4ccccc4c3)cs2)s1`, at most 1000 nM.

As for `Cc1[nH]nc(-c2ccc(F)cc2)c1-c1nc(C(=O)NCc2ccccn2)cs1`, the IC50 was at most 1000 nM. For `Cc1cccc(C(=O)NCc2nc(-c3ccc(F)cc3)c(-c3nc(C(=O)NC(C)C)cs3)o2)c1[N+](=O)[O-]` the value was at most 1000 nM; for `CC(C)NC(=O)c1csc(-c2oc(CNCCc3ccc(O)cc3)nc2-c2ccc(F)cc2)n1`, at most 1000 nM; for `CC(C)NC(=O)c1csc(-c2oc(CNC(=O)c3ccc(F)cc3Cl)nc2-c2ccc(F)cc2)n1`, at most 1000 nM. In the case of `CC(C)NC(=O)c1csc(-c2oc(CNCc3ccccn3)nc2-c2ccc(F)cc2)n1` it was at most 1000 nM.

`CC(C)NC(=O)c1csc(-c2c(-c3ccc(F)cc3)noc2CN(C)C)n1` came in with an IC50 of at most 1000 nM. In the case of `CC(C)NC(=O)c1csc(-c2oc(CNC(=O)c3ccc4cc(O)ccc4c3)nc2-c2ccc(F)cc2)n1` it was at most 1000 nM. Compound `CCC(=O)C(=O)NCc1nc(-c2ccc(F)cc2)c(-c2nc(C(=O)NC(C)C)cs2)o1` came in with an IC50 of at most 1000 nM.

`CC(C)NC(=O)c1csc(-c2oc(CN3CCN(C(=O)c4ccc5ncccc5c4)CC3)nc2-c2ccc(F)cc2)n1` registered an IC50 of at most 1000 nM. Turning to `Cc1nc(-c2ccc(F)cc2)c(-c2nc(C(=O)NC3CCCC3)cs2)s1`, the IC50 is at most 1000 nM.

Take `CC(=O)NCC(=O)N1CCC(c2[nH]nc(-c3ccc(F)cc3)c2-c2nc(C(=O)NC(C)C)cs2)CC1`: the IC50 is at most 1000 nM.

On to `CC(=O)N1CCC(n2cnc(-c3ccc(F)cc3)c2-c2nc(C(=O)NC(C)C)cs2)CC1`, for which the IC50 was at most 1000 nM. Regarding `CC(=O)Oc1ccccc1C(=O)NCc1onc(-c2ccc(F)cc2)c1-c1nc(C(=O)NC(C)C)cs1`, the IC50 is at most 1000 nM. In the case of `CC(C)NC(=O)c1csc(-c2oc(CNC(=O)c3cc4cc(Cl)ccc4o3)nc2-c2ccc(F)cc2)n1` it was at most 1000 nM. In the case of `CC(C)NC(=O)c1csc(-c2oc(CNC(=O)c3cc(F)c(F)cc3[N+](=O)[O-])nc2-c2ccc(F)cc2)n1` it was at most 1000 nM; in that of `CCOc1ccccc1CNC(=O)c1csc(-c2sc(C)nc2-c2ccc(F)cc2)n1`, at most 1000 nM; in that of `Cc1nc(-c2ccc(F)cc2)c(-c2nc(C(=O)NCc3ccc(Cl)cc3Cl)cs2)s1`, at most 1000 nM. For `CC(C)NC(=O)c1csc(-c2c(-c3ccc(F)cc3)n[nH]c2C2CCN(C(=O)C(C(C)C)N(C)C(=O)OC(C)(C)C)CC2)n1` (configuration not stated) the value was at most 1000 nM; for `CC(C)NC(=O)c1csc(-c2c(-c3ccc(F)cc3)n[nH]c2C2CCN(C(=O)[C@H](C)O)CC2)n1`, at most 1000 nM. `CC(C)C(CO)NC(=O)c1csc(-c2c(-c3ccc(F)cc3)n[nH]c2C2CCNCC2)n1` (configuration not stated) displayed an IC50 of at most 1000 nM. The compound `CC1=C(CCC(=O)N2CCN(Cc3nc(-c4ccc(F)cc4)c(-c4nc(C(=O)NC(C)C)cs4)o3)CC2)C=CCO1` registered an IC50 of at most 1000 nM. In the case of `Cc1ccc(C(=O)N2CCN(Cc3nc(-c4ccc(F)cc4)c(-c4nc(C(=O)NC(C)C)cs4)o3)CC2)c(C)c1` it was at most 1000 nM; in that of `O=C(NCCCO)c1csc(-c2c(-c3ccc(F)cc3)n[nH]c2C2CCNCC2)n1`, at most 1000 nM; in that of `CC(C)NC(=O)c1csc(-c2[nH]c(N)nc2-c2ccc(F)cc2)n1`, at most 1000 nM. In turn, `CC(C)NC(=O)c1csc(-c2oc(CNC(=O)c3cnc(O)c(Cl)c3)nc2-c2ccc(F)cc2)n1` gave an IC50 of at most 1000 nM. For `Cc1nc(-c2ccc(F)cc2)c(-c2nc(C(=O)NC(C)CO)cs2)s1` (configuration not stated) the value was at most 1000 nM. For `CC(C)NC(=O)c1csc(-c2oc(CN3CCN(C(=O)c4ccccc4Cc4ccccc4)CC3)nc2-c2ccc(F)cc2)n1` the value was at most 1000 nM; for `COc1cc(CN(C)C(=O)c2csc(-c3sc(C)nc3-c3ccc(F)cc3)n2)cc(OC)c1OC`, at most 1000 nM.

`COc1ccc(CCNC(=O)c2csc(-c3sc(C)nc3-c3ccc(F)cc3)n2)cc1` gave an IC50 of at most 1000 nM. For `CC(C)NC(=O)c1csc(-c2oc(CN3CCN(C(=O)c4c(F)c(F)c(F)c(F)c4F)CC3)nc2-c2ccc(F)cc2)n1` the value was at most 1000 nM; for `Cc1nc(-c2ccc(F)cc2)c(-c2nc(C(=O)NC3CCC(C)CC3)cs2)s1` (configuration not stated), at most 1000 nM. For `CC(C)NC(=O)c1csc(-c2oc(CNC(=O)c3cccnc3)nc2-c2ccc(F)cc2)n1` the value was at most 1000 nM; for `CCNC(=O)c1csc(-c2sc(C)nc2-c2ccc(F)cc2)n1`, at most 1000 nM; for `CC(C)NC(=O)c1csc(-c2oc(CNC(=O)c3cnc[nH]3)nc2-c2ccc(F)cc2)n1`, at most 1000 nM. For `COc1cccc(OC)c1C(=O)NCc1nc(-c2ccc(F)cc2)c(-c2nc(C(=O)NC(C)C)cs2)o1` the value was at most 1000 nM; for `CC(C)NC(=O)c1csc(-c2oc(CN3CCN(C(=O)Cc4ccc(Br)cc4)CC3)nc2-c2ccc(F)cc2)n1`, at most 1000 nM.

In turn, `CC(=O)N1CCC(c2onc(-c3ccc(F)cc3)c2-c2nc(C(=O)NC(C)C)cs2)CC1` displayed a half-maximal inhibitory concentration (IC50) of at most 1000 nM. `CC(C)NC(=O)c1csc(-c2oc(CN3CCN(C(=O)c4ccc(Cl)cc4O)CC3)nc2-c2ccc(F)cc2)n1` returned an IC50 of at most 1000 nM. The compound `COc1ccc(CNC(=O)c2csc(-c3sc(C)nc3-c3ccc(F)cc3)n2)cc1` displayed an IC50 of at most 1000 nM. For `Cc1nc(-c2ccc(F)cc2)c(-c2nc(C(=O)NCCCO)cs2)s1` the value was at most 1000 nM; for `CC(C)NC(=O)c1csc(-c2oc(CN3CCN(C(=O)C4CCc5ccccc5C4)CC3)nc2-c2ccc(F)cc2)n1` (configuration not stated), at most 1000 nM.

For `CC(C)NC(=O)c1csc(-c2oc(CNC(=O)c3cccc(Cl)c3Cl)nc2-c2ccc(F)cc2)n1`, the IC50 was at most 1000 nM. For `CC(C)NC(=O)c1csc(-c2oc(CN3CCN(C(=O)Cc4ccc(O)c(F)c4)CC3)nc2-c2ccc(F)cc2)n1` the value was at most 1000 nM; for `Cc1onc(-c2ccc(Cl)cc2)c1-c1ccn(C(=O)NC(C)C)n1`, at most 1000 nM. For `Cc1onc(-c2ccc(Cl)cc2)c1-c1ccn(C(=O)NC(C)CO)n1` (configuration not stated) the value was at most 1000 nM. In the case of `CC(C)NC(=O)c1csc(-c2oc(CNC(=O)c3cc(F)c(F)cc3Cl)nc2-c2ccc(F)cc2)n1` it was at most 1000 nM; in that of `CC(C)NC(=O)c1csc(-c2c(-c3ccc(F)cc3)noc2CNCCCN2CCCC2=O)n1`, at most 1000 nM; in that of `O=C(NCc1ccncc1)c1csc(-c2c(-c3ccc(F)cc3)n[nH]c2C2CCNCC2)n1`, at most 1000 nM.

The values above are taken from the Kinase Knowledgebase extract (Sharma et al. 2016).
